# Reference: patent US9056891B2, “Synthetic peptide inhibitors of Wnt pathway” (The United States of America, as represented by the …, priority 2010, dated 2015)
# *1 amine or outer side, *2 acyl side, *3 side chain or, on linkers, in order; H or OH if unused. Where a SMILES comes first, the peptide text is derived from it. Bridges are numbered along the chain shown (N, C = ends). Where no end group is shown, it is not given here. [ ]: non-standard residue; d: D form. The star is where a group is joined. X1 = CCCCCCCCCCCCC(C)(N[*:1])C(=O)[*:2]; Palmitoyl = CCCCCCCCCCCCCCCC(=O)*; Aib = CC(C)(N)C(=O)O
# Legend:
# 4T1 cells = assay: Toxicity (growth inhibition) for 4T1 cells; type: cell-based, mouse
# Experimental: To identify a mouse model for preclinical development of compounds, mouse cell lines were tested for (1) growth inhibition by the compounds and (2) the levels of constitutive Wnt signaling TCF-reporter activity using transfection of cell with TCF/LEF-responsive firefly luciferase construct. The data further confirmed that sensitivity to compounds correlated well with the levels of canonical Wnt signaling.
# Based on the data, mouse breast cancer cell line 4T1 was selected for in vivo testing.
# (§1) Further optimization and testing of inhibitors was performed using this cell line. Table 5 presents toxicity data for select inhibitors for 4T1 cells and human colon cancer cell line SW-480, wherein GI50 is the concentration providing 50% growth inhibition and TGI is the total growth inhibition.
# HCT-116 cells = type: cell-based, human; settings: 48 h
# Experimental: (§2) HeLa, U3A, RKO, HCT-116, and HT-29 cells were exposed to the CT-HC-1, CT-HC-3, CT-HC-5, and CT-HC-8 inhibitors of Example 1 for 48 hours in medium containing 1% bovine fetal serum, and the resulting cell number was evaluated using a MTT assay. Each of these cell lines is relevant to the evaluation of Wnt signaling. Cervical carcinoma HeLa cells overexpress β-catenin (see, e.g., Lee et al., Int. J. Cancer, 124(2): 287-297 (2009); and Lee et al., Gynecol. Oncol., 109(2): 270-274 (2008)). β-catenin is activated in colon carcinoma RKO due to mutation in CDX2 (see, e.g., Dang et al., Oncogene, 20(35): 4884-4890 (2001)). Colon adenocarcinoma HCT116 has elevated mutated β-catenin; however, it was found in the past to be resistant to down regulation of β-catenin (see, e.g., Chan et al., Proc. Natl. Acad. Sci. USA, 99(12): 8265-8270 (2002); and Handeli et al., Mol. Cancer Ther., 7(3): 521-529 (2008)). Colon carcinoma HT-29 has truncated adenomatous polyposis coli (APC) protein, which is a common cause of canonical Wnt pathway activation in colon malignancies. Fibrosarcoma U3A cells are STAT1-negative and have uncharacterized status of Wnt pathway.
# (§3) The ability of CT-HC-1 to inhibit growth and to kill cancer cells at different concentrations was further investigated in HeLa, U3A, RKO, HCT-116, and HT-29 cells. The cells were stained with Promega Non-Radioactive Cell Proliferation Assay Kit (MTT) according to the manufacture's protocol. The absorbance of the wells was determined at 544 nm by a FLUOstar/POLARstar Galaxy (BMG Lab Technologies GmbH) Microplate Reader. The assays were performed on control (C) and test (T) cells. Untreated cells were used as a control. Cellular responses were calculated from the data using the following formula: 100×[(T−T0)/(C−T0)] for T>T0 and 100×[(T−T0)/T0] for T<T0. T0 corresponds to cell density at the time of drug addition.
# U3A cells = type: cell-based; settings: 48 h
# Experimental: as §2, §3
# HT-29 cells = type: cell-based; settings: 48 h
# Experimental: as §2, §3
# RKO cells = type: cell-based; settings: 48 h
# Experimental: as §2, §3
# HeLa cells = type: cell-based; settings: 48 h
# Experimental: as §2, §3
# [1] = tested on: RKO, HT-29, HCT-116, SW-480, and SW-620 cells; assay: Cell viability of colon cancer cells (FIGS. 2A-C); type: cell-based; settings: increasing concentrations, HT-29, HCT-116, SW-480, SW-620
# Experimental: The concentration (μM) of the peptide inhibitor is indicated on the x-axis and the percent viability is indicated on the y-axis.
# A similar experiment was performed using RKO, HT-29, HCT-116, SW-480, and SW-620 cells. Colorectal adenocarcinoma SW-480 and SW-620 cells have truncated APC protein, which—as discussed above—is a common cause of canonical Wnt pathway activation in colon malignancies.
# SW480 cells = assay: Toxicity (growth inhibition) for SW-480 cells; type: cell-based, human; set-up: unit not given here
# Experimental: as §1
# [2] = tested on: HeLa, U3A, RKO, HCT-116, and HT-29 cells; assay: MTT cell number versus concentration (FIG. 1); type: cell-based; settings: HCT-116, HT-29
# Experimental: as §3
# β-catenin = assay: Levels of total β-catenin in MM cells; type: cell-based
# Experimental: Cells were also evaluated for levels of total β-catenin. In these studies, β-catenin was degraded within 3 hours of treatment with CT-HC-1.
# [3] = tested on: Lim-1, E-cadherin, Axin-2 expression; assay: Semi-quantitative RT-PCR of marker expression in MM cells; type: cell-based
# Text: (§4) To determine if the loss of β-catenin affects differentiation, MM cells were co-cultivated with inductor, embryonic spinal cord, and treated with CT-HC-1. In these cultures, tubule formation was unaffected. This finding was supported by semi-quantitative RT-PCR analysis of BIO-induced MM cells in which levels of epithelial markers Lim-1 and E-cadherin were unaltered with CT-HC-1 treatment. […] This observation is consistent with reports describing an antagonistic relationship between canonical and non-canonical Wnt mechanisms (see, e.g., Park et al., Development, 132: 2533-2539 (2007); and Schmidt-Ott et al., Development, 132: 3177-3190 (2007).
# [4] = tested on: Wnt pathway (TOPflash reporter transcription); assay: TOPflash dual luciferase reporter assay in primary metanephric mesenchyme (MM) cells; type: cell-based; settings: 10 μM, 30 min pre-treatment, 24 hours
# Experimental: Primary metanephric mesenchyme (MM) cells were transfected with the Amaxa Nucleofector 96-well Shuttle System (Lonza Group Ltd, Basel, Switzerland). Briefly, 1×10^6 cells per transfection were resuspended in 20 μl of 96-well Nucleofector solutions. TOPflash luciferase plasmid (1 μg) and 0.1 μg pRL-TK-renilla plasmids (Promega, Madison, Wis., USA) were mixed with cell suspensions and transferred to the well of a 96-well Nucleocuvette module. Nucleofections were performed according to manufacturer's instructions using program DN-100.
# MM cells were pre-treated with or without CT-HC-1 (10 μM) for 30 min, and then exposed to GSK3 inhibitor BIO (500 nM) or Wnt3a conditioned medium (50%) (Wnt3aCM as described in Willert et al., Nature, 423: 448-452 (2003)) for 24 hours. Cells were lysed and assayed for reporter activity using a Dual luciferase assay system (Promega) and a Monolight 3010 Luminometer (Pharmagen, San Diego, Calif., USA).
# [5] = tested on: MM cells (tubule formation); assay: MM cell differentiation, co-cultivation with embryonic spinal cord inductor; type: cell-based; settings: MM cells co-cultivated with embryonic spinal cord
# Text: as §4
# 4T1 breast cancer = 4T1 breast cancer mouse model; type: in vivo; settings: 2 mg/kg subcutaneously three times a week, alone, after three injections
# Experimental: CT-HC-11 has been tested in 4T1 breast cancer mouse model at two doses: 10 and 2 mg/kg injected subcutaneously three times a week alone or in combination with weekly gemcitabine (75 mg/kg).
# [6] = cells exposed only to peptide, no inductive ligand
compound,measurement,setting,value
Cap-TRFLSSTLQVSLRKK-NH2 [CT-HC-22],4T1 cells TGI (total growth inhibition),4T1 cells,> 5 µM
"CCCCCCCCCCCCC(C)(N)C(=O)N[C@@H](Cc1ccc(O)cc1)C(=O)N[C@@H](CCCCN)C(=O)N[C@@H](CCCCN)C(=O)N[C@@H](CCCNC(=N)N)C(=O)N[C@@H](CC(C)C)C(=O)N[C@@H](CO)C(=O)N[C@H](C(=O)N[C@@H](CCC(=O)O)C(=O)N[C@@H](CC(C)C)C(=O)N[C@H](C(=O)N[C@@H](CO)C(=O)N[C@@H](CO)C(=O)N[C@@H](CC(C)C)C(=O)N[C@@H](Cc1ccccc1)C(=O)N[C@@H](CCCNC(=N)N)C(=O)O)[C@@H](C)O)C(C)C (stereo partly shown) [CT-HC-8, Doa-YKKRLSVELTSSLFR] (H-[X1]YKKRLSVELTSSLFR-OH; N-terminus and C-terminus assumed)",4T1 cells TGI (total growth inhibition),4T1 cells,> 5 µM
same,GI50,HCT-116 cells,> 5 µM
same,GI50,U3A cells,> 5 µM
same,GI50,HT-29 cells,> 5 µM
same,GI50,RKO cells,> 5 µM
same,GI50,HeLa cells,3.2 ± 0.4 µM
same,cell viability,[1],decreased viability
same,SW480 cells TGI (total growth inhibition),SW480 cells,0.4
Pal-YKKRLSVELTSSLFRTEPMAW (Palmitoyl-YKKRLSVELTSSLFRTEPMAW) [CT-HC-16],4T1 cells TGI (total growth inhibition),4T1 cells,> 5 µM
same,SW480 cells TGI (total growth inhibition),SW480 cells,>5
"CCCCCCCCCCCCCCCC(=O)NCCCC[C@H](N)C(=O)N[C@@H](Cc1ccc(O)cc1)C(=O)N[C@@H](CCCCN)C(=O)N[C@@H](CCCCN)C(=O)N[C@@H](CCCNC(=N)N)C(=O)N[C@@H](CC(C)C)C(=O)N[C@@H](CO)C(=O)N[C@H](C(=O)N[C@@H](CCC(=O)O)C(=O)N[C@@H](CC(C)C)C(=O)N[C@H](C(=O)N[C@@H](CO)C(=O)N[C@@H](CO)C(=O)N[C@@H](CC(C)C)C(=O)N[C@@H](Cc1ccccc1)C(=O)N[C@@H](CCCNC(=N)N)C(=O)O)[C@@H](C)O)C(C)C [CT-HC-1, Pal-ε-KYKKRLSVELTSSLFR] (H-K(Palmitoyl)YKKRLSVELTSSLFR-OH; N-terminus and C-terminus assumed)",cell number as compared to untreated cells,[2],decreased cell numbers in a concentration dependent manner
same,4T1 cells TGI (total growth inhibition),4T1 cells,> 5 µM
same,GI50,HCT-116 cells,3.4 ± 0.25 µM
same,GI50,U3A cells,0.6 ± 0.04 µM
same,GI50,HT-29 cells,1.4 ± 0.05 µM
same,GI50,RKO cells,1.3 ± 0.05 µM
same,GI50,HeLa cells,0.63 ± 0.025 µM
same,time of treatment within which β-catenin was degraded,β-catenin,≤ 3 h
same,β-catenin levels 24 hours after treatment,β-catenin; 24 hours,had not recovered
same,β-catenin levels in presence of proteasomal inhibitor MG132,β-catenin; with MG132,stabilized
same,levels of epithelial markers Lim-1 and E-cadherin,[3]; BIO-induced MM cells,unaltered
same,Axin-2 expression,[3]; [6],decrease
same,expression of Lim-1 and E-cadherin,[3]; [6],enhanced expression
same,BIO-induced transcription (TOPflash reporter),[4]; BIO 500 nM,completely blocked
same,Wnt3aCM-induced transcription (TOPflash reporter),[4]; Wnt3a conditioned medium 50%,completely blocked
same,tubule formation,[5],unaffected
same,cell viability,[1],decreased viability
same,SW480 cells TGI (total growth inhibition),SW480 cells,5
Lau-TRFLSSTLQVSLRKK-NH2 [CT-HC-23],4T1 cells TGI (total growth inhibition),4T1 cells,3.5 µM
Pal-Aib-YKKRLSVELTSSLFR (Palmitoyl-[Aib]YKKRLSVELTSSLFR) [CT-HC-13],4T1 cells TGI (total growth inhibition),4T1 cells,> 5 µM
Pal-NKPQDYKKRLSVELTSSLFR [CT-HC-2],4T1 cells TGI (total growth inhibition),4T1 cells,> 5 µM
same,SW480 cells TGI (total growth inhibition),SW480 cells,>5
"CCCCCCCCCCCCCCCC(=O)NCCCC[C@H](N)C(=O)N[C@@H](Cc1ccc(O)cc1)C(=O)N[C@@H](CCCCN)C(=O)N[C@@H](CCCCN)C(=O)N[C@@H](CCCNC(=N)N)C(=O)N[C@@H](CC(C)C)C(=O)N[C@@H](CO)C(=O)N[C@H](C(=O)N[C@@H](CCC(N)=O)C(=O)N[C@@H](CC(C)C)C(=O)N[C@H](C(=O)N[C@@H](CO)C(=O)N[C@@H](CO)C(=O)N[C@@H](CC(C)C)C(=O)N[C@@H](Cc1ccccc1)C(=O)N[C@@H](CCCNC(=N)N)C(=O)O)[C@@H](C)O)C(C)C [CT-HC-3, Pal-ε-KYKKRLSVQLTSSLFR] (H-K(Palmitoyl)YKKRLSVQLTSSLFR-OH; N-terminus and C-terminus assumed)",4T1 cells TGI (total growth inhibition),4T1 cells,> 5 µM
same,GI50,HCT-116 cells,4 ± 0.3 µM
same,GI50,U3A cells,0.65 ± 0.045 µM
same,GI50,HT-29 cells,2.8 ± 0.1 µM
same,GI50,RKO cells,1.8 ± 0.15 µM
same,GI50,HeLa cells,0.8 ± 0.08 µM
same,cell viability,[1],decreased viability
same,SW480 cells TGI (total growth inhibition),SW480 cells,0.5
Pal-Aib-YKKRLSVQLTSSLFR (Palmitoyl-[Aib]YKKRLSVQLTSSLFR) [CT-HC-19],4T1 cells TGI (total growth inhibition),4T1 cells,> 5 µM
"Ac-YKKRLS+ELT+SLFR (Ac-YKKRLSXELTXSLFR; staple 7-11; not fully specified (residues 7, 11); printed as Ac-YKKRLS+ELT+SLFR) [CT-HC-9]",4T1 cells TGI (total growth inhibition),4T1 cells,> 5 µM
same,SW480 cells TGI (total growth inhibition),SW480 cells,>5
Pal-RFLSSTLQVSLRKK-NH2 [CT-HC-20],4T1 cells TGI (total growth inhibition),4T1 cells,> 5 µM
Pal-YKKRLSVELTSSLFR (Palmitoyl-YKKRLSVELTSSLFR) [CT-HC-12],4T1 cells TGI (total growth inhibition),4T1 cells,> 5 µM
same,SW480 cells TGI (total growth inhibition),SW480 cells,>5
Pal-TRFLSSTLEVSLRKKY-NH2 [CT-HC-10],4T1 cells TGI (total growth inhibition),4T1 cells,2 µM
same,SW480 cells TGI (total growth inhibition),SW480 cells,2.2
Pal-TRFLSSTLQVSLRKK-NH2 [CT-HC-15],4T1 cells TGI (total growth inhibition),4T1 cells,3.6 µM
Pal-Aib-TRFLSSTLQVSLRKK-NH2 [CT-HC-11],4T1 cells TGI (total growth inhibition),4T1 cells,3 µM
same,tumor volume,4T1 breast cancer,significant reduction in tumor volume
